Assay results: patent US20160199469A1, “ONCOLOGY VACCINE” (priority 2013, published 2016)

Legend:
Assay type in all cases: cell-based, human
[1] = tested on: PBMC from healthy subjects; assay: Peptide-specific T cell responses by IFN-γ ELISpot after short term culture, healthy subjects (Example 2); settings: positive response = SFC/10^6 PBMC greater than 20, pools of overlapping 18-mer peptides at 5 μg/peptide/mL
Procedure: Peptide-specific T cell responses were evaluated in peripheral mononuclear cells obtained from healthy subjects. After thawing, PBMC were cultured in 24-well flat bottom plates (or 48-well bottom plates) at a density of 1 million cells per ml in the presence of culture medium (RPMI 1640 Medium, Glutamax™ (Life Technologies) with 5% (v/v) human AB Serum (PAA Laboratories Ltd)) and a pool of peptides (composed of P103-P53, P513_MAGE3, P679_MAGE3, P805_NY_ESO1, P1575_HER, P2238-HER, P3825_MUC1, P3776_MUC1, P4540_hTERT, P4575_hTERT, P5400_MAGE1, P-HAGE) at a total final concentration of 20 μg/mL.
The plates were incubated at 37° C. in a 5% CO2 incubator and on Day 4, recombinant human IL-2 and IL-15 (R&D Systems) were added to each well at final concentrations of 10 IU/ml and 10 ng/mL respectively. On Day 7, PBMC cultures were removed and washed in culture medium and replaced back into wells in culture medium containing 10 IU/mL of IL-2. After overnight resting at 37° C. in a 5% CO2 incubator, cells were removed, counted and assessed for viability. PVDF plates (MSIPS4510, Millipore) were coated with anti-human IFN-γ antibody (R&D systems) and incubated overnight at 4° C. Plates were then washed and incubated with blocking buffer (1% BSA (PAA), 5% sucrose (Fisher), Dulbecco's-PBS (Invitrogen)) for at least 1 hour and finally washed with culture medium before use. […] After 18 hours of culture, plates were washed and incubated with a biotinylated secondary anti-human IFN-γ antibody (R&D systems) followed by streptavidin-AP. Production of IFN-γ was detected using the ELISpot blue colour module (R&D Systems) as per manufacturer's instructions. Plates were scanned and wells were counted using an automated ELISpot plate reading system equipped with spot counting software (Cellular Technology Limited). Results are expressed as Spot Forming Cells (SFC)/10^6 PBMC and background responses represented by IFNγ SFC of PBMC in culture medium alone have been subtracted for each subject. Positive response was defined as number of Spot Forming Cells (SFC)/10^6 PBMC greater than 20.

[2] = tested on: PBMC from individuals with non-small cell lung cancer (NSCLC); assay: IFNγ ELISpot after 7 day short-term culture, NSCLC patients (Example 3); settings: for responder frequency: NSCLC patients, percentage of patients with peptide responses of greater than 500 SFC/million, peptide pools 5 μg/peptide/mL; for IFN-γ ELISpot spot intensity in NSCLC patients compared with healthy subjects: FIG. 7, Mann-Whitney unpaired test
[3] = tested on: PBMC from NSCLC subjects; assay: Intracellular cytokine staining (ICS) of CD4+ and CD8+ T cells after short-term culture; settings: for Th1 cytokine-producing CD4 and/or CD8 T cell responses: intracellular cytokine staining, FIGS. 8, 9 and 10; for level of response among the peptides in the mixture: short term culture with a combination of peptide pools
Procedure: PBMC were cultured in 2 mL culture medium (CM, RPMI1640 Glutamax supplemented with 5% untreated human AB serum (PAA) and gentamicin) in 24 well cell culture plates at a concentration of 1×10^6 cells/mL for a total of 7 days. Each pool was added at 20 μg/mL total peptide final concentration. On day 1, IL-7 (Peprotech) and IL-2 (R&D Systems) were added to the cultures to a final concentration of 5 ng/mL and 10 IU/mL respectively. On day 3, IL-2 was added at a concentration of 10 IU/mL. On day 7, cells were harvested from cell culture plates washed with culture medium and counted using TruCount (BD Biosciences) before analysis using IFNγ (interferon gamma) ELISpot assay or intracellular cytokine staining (ICS) as described below.
Short term culture of PBMC were prepared as described above, except culture conditions 1 and 2 were replaced with alternative culture conditions 1 to 5 below, each of which involves stimulation with a different combination of peptide pools:
Culture 5: P-P805_NY_ESO1
Cells from the short-term cultures were plated in a 96 well round bottom plate at 5×10^5 PBMC/well stimulated with individual peptide pools used at a concentration of 5 μg/peptide/mL. Plates were incubated at 37° C. in a 5% CO2 incubator for 20h. PMA/Ionomycin was added to respective wells and Golgi plug (BD Biosciences) was added to all wells after the first 3h of the assay. The cells were harvested and washed with PBS+0.1% BSA (wash buffer) and stained with anti-CD3, anti-CD4 and anti-CD8 (BD Biosciences) for 30 minutes at 4° C. After another wash, the cells were fixed and permeabilised with 100 μL of Cytofix/Cytoperm solution (BD Biosciences) for 20 minutes at 4° C., followed by two washes with 1× Perm/Wash solution (BD Biosciences). Finally, cells were stained with ant-IL-2-FITC, anti-IFNγ-PE and anti-TNFα PerCP-Cy5.5 (BD Biosciences) for 30 minutes at 4° C. Samples were acquired on a FACSCanto II flow cytometer (BD Biosciences). Gating was based on isotype control antibody staining and media stimulated samples for each subject.

[4] = tested on: PBMC from healthy individuals; assay: IFNγ ELISpot after 7 day short-term culture, healthy individuals (Example 3); settings: healthy subjects (FIGS. 3 and 5)

Row | Sequence | frequency of responding subjects [1] [%] | responder frequency [2] [%] | IFN-γ ELISpot spot intensity in NSCLC patients compared with healthy subjects [2] | Th1 cytokine-producing CD4 and/or CD8 T cell responses [3] | further results
1 | GENVKIPVAIKVLRENTSPKANKEILDEAYVMAGVGSPYVSRKK (listed as Homo sapiens) [P2238-HER] | 83 | 10.00 |  |  | 
2 | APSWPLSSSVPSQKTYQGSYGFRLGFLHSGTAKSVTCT (listed as Homo sapiens) [P103-P53] | 100 |  | significantly lower | ability to promote Th1 cytokine-producing CD4 and/or CD8 T cell responses | 
3 | ILESLFRAVITKKVADLVGFLLLKYRAREPVTKAEMLESVIK (listed as Homo sapiens) [P5232_MAGE1] |  | 32.25 | significantly lower | ability to promote Th1 cytokine-producing CD4 and/or CD8 T cell responses | 
4 | EFQAALSRKVAELVHFLLLKYRAREPVTKAEMLG (listed as Homo sapiens) [P513_MAGE3] | 50 | 18.46 |  |  | 
5 | PALGSTAPPVHNVTSASGSASGSASTLVHNGTSARATTTPASK (listed as Homo sapiens) [P3698_MUC1] |  | 14.06 |  |  | 
6 | QTGTGKTLCYLMPGFIHLVLQPSLKGQRNRPGMLV (listed as Homo sapiens) [P-HAGE] | 50 |  | significantly lower | ability to promote Th1 cytokine-producing CD4 and/or CD8 T cell responses | 
7 | EMFLQIYKQGGFLGLSNIKFRPGSVVVQLTLAFREGTINVH (listed as Homo sapiens) [P3825_MUC1] | 17 | 8.06 |  |  | 
8 | PARYEFLWGPRALAETSYVKVLEYVIKVSARVRFFFPSLREA (listed as Homo sapiens) [P5400_MAGE1] | 100 | 27.41 | significantly lower | ability to promote Th1 cytokine-producing CD4 and/or CD8 T cell responses | level of response among the peptides in the mixture [3]: highest level of response
9 | RAVRSLLRSHYREVLPLATFVRRLGPQGWRLVQRGDPAAFRA (listed as Homo sapiens) [P4020_hTERT] |  | 32.81 | significantly lower | ability to promote Th1 cytokine-producing CD4 and/or CD8 T cell responses | 
10 | MTPGTQSPFFLLLLLTVLTVVTGSGHASSTPGG (listed as Homo sapiens) [P2753_MUC1] |  | 4.76 |  |  | 
11 | PDGPGGNAGGPGEAGATGGRGPRGAGAARASGPGGGAP (listed as Homo sapiens) [P750-NYESO, used as a negative control peptide] |  | 3.12 |  |  | magnitude of response and responder frequency ([2]; NSCLC patients (FIGS. 2 and 4)): amongst the lowest responding peptides; magnitude of response and responder frequency [4]: amongst the lowest responding peptides
12 | YEFLWGPRALVETSYVKVLHHMVKISGGPHISYPPLH (listed as Homo sapiens) [P679_MAGE3] | 80 | 28.57 | significantly lower | ability to promote Th1 cytokine-producing CD4 and/or CD8 T cell responses | 
13 | RTFRREKRAERLTSRVKALFSVLNYERARRPGLLGASVLGLDDI (listed as Homo sapiens) [P4650_hTERT] |  | 38.70 | significantly lower | ability to promote Th1 cytokine-producing CD4 and/or CD8 T cell responses | 
14 | RGPESRLLEFYLAMPFATPMEAELARRSLAQDAPPLPVPG (listed as Homo sapiens) [P805_NY_ESO1] | 50 | 34.92 | significantly lower | ability to promote Th1 cytokine-producing CD4 and/or CD8 T cell responses | level of response among the peptides in the mixture [3]: highest level of response
15 | HRLREEILAKFLHWLMSVYVVELLRSFFYVTETTFQKNR (listed as Homo sapiens) [P4540_hTERT] | 67 | 23.43 | significantly lower | ability to promote Th1 cytokine-producing CD4 and/or CD8 T cell responses | 
16 | HREARPALLTSRLRFIPKPDGLRPIVNMDYVVGARTFRREK [P4616_hTERT] |  | 37.50 |  | ability to promote Th1 cytokine-producing CD4 and/or CD8 T cell responses | 
17 | LGLSYDGLLGDNQIMPKAGLLIIVLAIIAREGD (listed as Homo sapiens) [P590-MAGE3] |  | 15.87 |  |  | 
18 | TFQKNRLFFYRKSVWSKLQSIGIRQHLKRVQLRELSEAEVR (listed as Homo sapiens) [P4575_hTERT] | 100 |  |  | ability to promote Th1 cytokine-producing CD4 and/or CD8 T cell responses | 
19 | RLLQLHITMPFSSPMEAELVRRILSRDAAPLPRPGAVL (listed as Homo sapiens) [P5525_LAGE1] |  | 31.03 | significantly lower | ability to promote Th1 cytokine-producing CD4 and/or CD8 T cell responses | 
20 | AGIRRDGLLLRLVDDFLLVTPHLTHAKTFLRTLVRGVPEYG (listed as Homo sapiens) [P4862_TERT] |  |  |  |  | responder frequency ([2]; listed as P4862_hTERT): 7.93%
21 | VQGYVLIAHNQVRQVPLQRLRIVRGTQLFEDNYALAVL (listed as Homo sapiens) [P1575_HER] | 100 | 16.12 |  |  | 
22 | AFLSVKKQFEELTLGEFLKLDRERAKNKIAKETNNKKKE (listed as Homo sapiens) [P991_SURVIVIN] |  | 14.51 |  |  | 
23 | GAQYRIHTHGVFRGIQDVRRVPGVAPTLVRSASETSEKRPF (listed as Homo sapiens) [P1331_WT1] |  | 5.08 |  |  | 
24 | SVVGNWQYFFPVIFSKASSSLQLVEGIELMEVDPIGHLYIF (SVVGNWQYFFPVIFSKASSSLQLVFGIELMEVDPIGHLYIF; listed as Homo sapiens) [P550_MAGE3] |  |  | significantly lower | ability to promote Th1 cytokine-producing CD4 and/or CD8 T cell responses | level of response among the peptides in the mixture [3]: highest level of response
25 | TSSNHSTSPQLSTGVSFFFLSFHISNLQFNSSLEDPST (listed as Homo sapiens) [P3776_MUC1] | 100 | 4.76 |  |  | 
